Here are results for six molecules from patent US20240335452A1, “COMPOSITIONS AND METHODS OF COMBINATION THERAPY FOR TARGETING LYMPHOMA” (Cullgen (Shanghai), Inc., priority 2021, published 2024).

Test [1] concerns SU-DHL-10 cells. As to the kind of experiment: Cell viability assay (CellTiter-Glo) in SU-DHL-10 cells. It counts as cell-based, human. The following applies: for cell viability, response of the cells to the single agent: SU-DHL-10, single agent; for IC50: Homo sapiens, SU-DHL10, 120 h, SU-DHL-10 cells (EZH2-mutant DLBCL), in the presence of 1 μM EPZ-6438, 5 days; for cell viability of the combination versus the compound alone (FIG. 2A, 2C): SU-DHL-10, combination with any of CC-122, CC-220, or CC-92480 (so in the source). Here is the method:
(§1) Experiments were performed in cultured human cells to assess the efficacy of combined EZH2 inhibitor and immunomodulatory drug (e.g., an IMiD) treatment using an EZH2-mutant DLBCL cell line, SU-DHL-10, and an EZH2-wild type line, OCI-LY7. Cells were purchased from Nanjing Cobioer Biotechnology. SU-DHL-10 and OCI-LY7 cells were cultured at 37° C. with 5% CO2 in RPMI 1640 Medium supplemented with 10% fetal bovine serum. Cells were authenticated using the short tandem repeat (STR) assays. Mycoplasma test results were negative.
(§2) The cultured cells were seeded at a density of 5000 cells per well in 96-well assay plates and treated with test compounds at 10 μM followed by a 11-point 3-fold serial dilution or an 8-point 10-fold serial dilution. Cell viability was determined after 5 days, using the CellTiter-Glo assay kit (Promega) according to the manufacturer's instructions. The dose-response curves were determined and IC50 values were calculated using the GraphPad Prism software following a nonlinear regression (least squares fit) method. Each data point in the figure represents the mean values of at least two technical replicates ± standard deviation.
(§3) Cells were treated with EZH2 inhibitors in the presence of IMiDs at concentrations sufficient to induce degradation of IKZF1 and IKZF3 but not enough to kill cells. CC-122 and CC-220 were tested at a concentration of 1 μM; CC-92480 and CFT7455 were tested at a concentration of 1 nM; and CC-99282 was tested at a concentration of 10 nM.
For orientation: ATP-based viability assays read luminescence as a measure of living cells.

In test [2] the test system is OCI-LY7 cells. As to the kind of experiment: Cell viability assay (CellTiter-Glo) in OCI-LY7 cells. It counts as cell-based, human. The following applies: for cell viability, response of the cells to the single agent: OCI-LY7, single agent, 5 days; for IC50: Homo sapiens, 120 h, OCI-LY7 cells (EZH2-wild type), in the presence of 1 μM EPZ-6438, 5 days; for cell viability of the combination versus the compound alone (FIG. 2B, 2D): OCI-LY7, combination with any of CC-122, CC-220, or CC-92480 (so in the source). How it is done:
as §1, §2, §3

Where [3] appears, read: SU-DHL-10, in the presence of 1 nM CFT7455, 5 days.
Where [4] appears, read: SU-DHL-10, in the presence of 10 nM CC-99282, 5 days.
Setting [5] is: OCI-LY7, in the presence of 1 nM CFT7455, 5 days.
The mark [6] stands for this setting: OCI-LY7, in the presence of 10 nM CC-99282, 5 days.
Where [7] appears, read: SU-DHL-10, in the presence of 1 nM CC-92480, 5 days.
Setting [8] is: SU-DHL-10, in the presence of 1 μM CC-122, 5 days.
Setting [9] is: SU-DHL-10, in the presence of 1 μM CC-220, 5 days.
The mark [10] stands for this setting: OCI-LY7, in the presence of 1 nM CC-92480, 5 days.
Setting [11] is: OCI-LY7, in the presence of 1 μM CC-122, 5 days.
The mark [12] stands for this setting: OCI-LY7, in the presence of 1 μM CC-220, 5 days.
[13] abbreviates: SU-DHL-10, in the presence of 1 μM CPI-1205, 5 days.
The mark [14] stands for this setting: SU-DHL-10, in the presence of 1 μM EPZ-6438, 5 days.
[15] abbreviates: SU-DHL-10, in the presence of 1 μM GSK126, 5 days.
Setting [16] is: SU-DHL-10, in the presence of C24 (1 μM with CC-122, 2 μM with CC-220), 5 days.
The mark [17] stands for this setting: OCI-LY7, in the presence of 1 μM C24, 5 days.
Setting [18] is: OCI-LY7, in the presence of 1 μM CPI-1205, 5 days.
[19] abbreviates: OCI-LY7, in the presence of 1 μM EPZ-6438, 5 days.
The mark [20] stands for this setting: OCI-LY7, in the presence of 1 μM GSK126, 5 days.

The IC50 is the point on the concentration scale where inhibition reaches its midpoint.

The structures appear in SMILES notation. “Also recorded” adds a separate entry of the source.

For `COC1CN(C2CCC([C@@]3(C)Oc4c(Cl)cc(C(=O)NCc5c(SC)cc(C)[nH]c5=O)c(C)c4O3)CC2)C1` (stereo partly drawn) [CPI-0209, (2R)-7-chloro-2-(4-(3-methoxyazetidin-1-yl)cyclohexyl)-2,4-dimethyl-N-((6-methyl-4-(methylthio)-2-oxo-1,2-dihydropyridin-3-yl)methyl)benzo[d][1,3]dioxole-5-carboxamide], the “cell viability (sensitivity of the cells to the compound in combination)” value in test [1] (setting [3]), in test [1] (setting [4]), in test [2] (setting [5]) and in test [2] (setting [6]) was “highly sensitive; also recorded: lowered cell viability more than treatment with CPI-0209 alone” throughout. The “cell viability, response of the cells to the single agent” value (from here on “cell viability, response of the cells”) in test [1] (5 days) is listed as “moderately responsive”; in test [2], “modestly responsive”.

Consider `CCc1c(N(CC)C2CCOCC2)cc2oc(CN3CCCCC3)cc2c1C(=O)NCc1c(C)cc(C)[nH]c1=O` [SHR2554, N-((4,6-dimethyl-2-oxo-1,2-dihydropyridin-3-yl)methyl)-5-ethyl-6-(ethyl(tetrahydro-2H-pyran-4-yl)amino)-2-(piperidin-1-ylmethyl)benzofuran-4-carboxamide], for which the “cell viability (sensitivity of the cells to the compound in combination)” value in test [1] (setting [3]), in test [1] (setting [4]), in test [2] (setting [5]) and in test [2] (setting [6]) was “highly sensitive; also recorded: lowered cell viability more than treatment with SHR2554 alone” throughout. Also, the “cell viability, response of the cells” value in test [1] (5 days) was “modestly responsive”; in test [2] it was “refractory”.

Consider `CC[C@H](C)n1cc(C)c2c(C(=O)NCc3c(C)cc(C)[nH]c3=O)cc(-c3ccc(N4CCNCC4)nc3)cc21` [GSK126, (S)-1-(sec-butyl)-N-((4,6-dimethyl-2-oxo-1,2-dihydropyridin-3-yl)methyl)-3-methyl-6-(6-(piperazin-1-yl)pyridin-3-yl)-1H-indole-4-carboxamide], for which the “cell viability (sensitivity of the cells to the compound in combination)” value in test [1] (setting [7]), in test [1] (setting [8]), in test [1] (setting [9]), in test [2] (setting [10]), in test [2] (setting [11]) and in test [2] (setting [12]) was “highly sensitive; also recorded: lowered cell viability more than treatment with GSK126 alone” throughout.

As for `COc1cc(C)[nH]c(=O)c1CNC(=O)c1c(C)n([C@H](C)C2CCN(CC(F)(F)F)CC2)c2ccccc12` [CPI-1205, lirametostat], the “cell viability (sensitivity of the cells to the compound in combination)” value in test [1] (setting [7]), in test [1] (setting [8]), in test [1] (setting [9]), in test [2] (setting [10]), in test [2] (setting [11]) and in test [2] (setting [12]) was “highly sensitive; also recorded: lowered cell viability more than treatment with CPI-1205 alone” throughout.

Take `O=C1CC[C@H](N2Cc3c(OCc4ccc(CN5CCOCC5)cc4)cccc3C2=O)C(=O)N1` [CC-220, iberdomide]: the figures for the IC50 in test [1] and in test [2] were 9.5 nM and 30 nM, respectively. Besides, the “cell viability of the combination versus the compound alone (FIG. 2A, 2C)” value in test [1] is recorded as “lowered cell viability more than treatment with CC-220 alone”. The “cell viability (sensitivity of the cells to the compound in combination)” value in test [1] (setting [13]), in test [1] (setting [14]), in test [1] (setting [15]), in test [1] (setting [16]), in test [2] (setting [17]) and in test [2] (setting [18]) was “highly sensitive” each time. The “cell viability (sensitivity of the cells to the compound in combination)” value in test [2] (setting [19]) and in test [2] (setting [20]) was “highly sensitive” each time. The “cell viability, response of the cells” value is given as “refractory” in test [1] (5 days) and “modestly responsive” in test [2]. Besides, in test [2], the “cell viability of the combination versus the compound alone (FIG. 2B, 2D)” value is listed as “lowered cell viability more than treatment with CC-220 alone”.

As for `Cc1nc2cccc(N)c2c(=O)n1C1CCC(=O)NC1=O` (stereo not shown) [CC-122, avadomide], the IC50 came out at 89 nM in test [1] and 380 nM in test [2]. Also, the “cell viability of the combination versus the compound alone (FIG. 2A, 2C)” value in test [1] was “lowered cell viability more than treatment with CC-122 alone”. Also, the “cell viability (sensitivity of the cells to the compound in combination)” value in test [1] (setting [13]), in test [1] (setting [14]), in test [1] (setting [15]), in test [1] (setting [16]), in test [2] (setting [17]) and in test [2] (setting [18]) was “highly sensitive” each time. Further, the “cell viability (sensitivity of the cells to the compound in combination)” value in test [2] (setting [19]) and in test [2] (setting [20]) was “highly sensitive” throughout. Also, the results for the “cell viability, response of the cells” value in test [1] (5 days) and in test [2] were “refractory” and “modestly responsive”, respectively. Besides, the “cell viability of the combination versus the compound alone (FIG. 2B, 2D)” value in test [2] is listed as “lowered cell viability more than treatment with CC-122 alone”.
